In brackets after ≈: the same amount, converted by molar mass.
Tests used:
Acinetobacter johnsonii [1] = assay: Activity of Acinetobacter johnsonii SCO1
Acinetobacter johnsonii [2] = assay: Ratio of kcat to Km for Acinetobacter johnsonii SCO1
Acinetobacter johnsonii [3] = assay: Antibacterial activity against Acinetobacter johnsonii 7037 expressing SCO1 by agar dilution technique; type: functional
Escherichia coli [4] = assay: Antibacterial activity against Escherichia coli DH10B by agar dilution technique; type: functional
Escherichia coli [5] = assay: Antibacterial activity against Escherichia coli DH10B expressing SCO1 by agar dilution technique; type: functional
[6] = Inhibition of Acinetobacter johnsonii SCO1

SMILES | Km (Acinetobacter johnsonii [1]) | kcat (Acinetobacter johnsonii [1]) | Ratio (Acinetobacter johnsonii [2]) | MIC (Acinetobacter johnsonii [3]) | MIC (Escherichia coli [4]) | MIC (Escherichia coli [5]) | IC50 [6]
C[C@@H](O)[C@H]1C(=O)N2C(C(=O)O)=C(SCCNC=N)C[C@H]12 [IMIPENEM ANHYDROUS] | 3800 µM | 0.03 s⁻¹ | 0.008 mM⁻¹ s⁻¹ | 0.12 µg/mL (≈ 0.401 µM) |  |  | 
C[C@H]1[C@H](NC(=O)/C(=N\OC(C)(C)C(=O)O)c2csc(N)n2)C(=O)N1S(=O)(=O)O [AZTREONAM] |  | < 0.01 s⁻¹ |  | > 512 µg/mL |  |  | 
CC1(C)S[C@@H]2[C@H](NC(=O)Cc3ccccc3)C(=O)N2[C@H]1C(=O)O | 20 µM | 150 s⁻¹ | 7500 mM⁻¹ s⁻¹ |  |  |  | 
CO/N=C(\C(=O)N[C@@H]1C(=O)N2C(C(=O)O)=C(COC(N)=O)CS[C@H]12)c1ccco1 [CEFUROXIME] | 650 µM | 0.05 s⁻¹ | 0.08 mM⁻¹ s⁻¹ | > 512 µg/mL | 2 µg/mL (≈ 4.71 µM) | 4 µg/mL (≈ 9.43 µM) | 
O=C(O)[C@H]1/C(=C/CO)O[C@@H]2CC(=O)N21 [CLAVULANIC ACID] |  |  |  |  |  |  | 300 nM
CC(=O)OCC1=C(C(=O)O)N2C(=O)[C@@H](NC(=O)Cc3cccs3)[C@H]2SC1 [CEPHALOTHIN] | 120 µM | 0.1 s⁻¹ | 1 mM⁻¹ s⁻¹ | > 512 µg/mL | 2 µg/mL (≈ 5.04 µM) | 8 µg/mL (≈ 20.2 µM) | 
CO/N=C(\C(=O)N[C@@H]1C(=O)N2C(C(=O)[O-])=C(C[N+]3(C)CCCC3)CS[C@H]12)c1csc(N)n1 [CEFEPIME] | > 2000 µM | > 1.5 s⁻¹ | 0.8 mM⁻¹ s⁻¹ | > 512 µg/mL |  | 0.12 µg/mL (≈ 0.25 µM) | 
CO/N=C(\C(=O)N[C@@H]1C(=O)N2C(C(=O)O)=C(COC(C)=O)CS[C@H]12)c1csc(N)n1 [CEFOTAXIME] | 2000 µM | 0.1 s⁻¹ | 0.05 mM⁻¹ s⁻¹ | > 512 µg/mL | 0.12 µg/mL (≈ 0.263 µM) | 0.25 µg/mL (≈ 0.549 µM) | 
CC(C)(O/N=C(\C(=O)N[C@@H]1C(=O)N2C(C(=O)[O-])=C(C[n+]3ccccc3)CS[C@H]12)c1csc(N)n1)C(=O)O [CEFTAZIDIME] | 600 µM | 0.3 s⁻¹ | 0.5 mM⁻¹ s⁻¹ | > 512 µg/mL | 0.06 µg/mL (≈ 0.11 µM) | 0.5 µg/mL (≈ 0.915 µM) | 
C[C@]1(Cn2ccnn2)[C@H](C(=O)O)N2C(=O)C[C@H]2S1(=O)=O [TAZOBACTAM] |  |  |  |  |  |  | 1200 nM
CC1(C)S[C@@H]2[C@H](NC(=O)[C@H](N)c3ccc(O)cc3)C(=O)N2[C@H]1C(=O)O [AMOXICILLIN] |  |  |  | > 512 µg/mL | 2 µg/mL (≈ 5.47 µM) | > 512 µg/mL | 
CO[C@@]1(NC(=O)Cc2cccs2)C(=O)N2C(C(=O)O)=C(COC(N)=O)CS[C@@H]21 [CEFOXITIN] |  | < 0.01 s⁻¹ |  | > 512 µg/mL | 4 µg/mL (≈ 9.36 µM) | 4 µg/mL (≈ 9.36 µM) | 
CC1(C)S[C@@H]2[C@H](NC(=O)[C@H](C(=O)O)c3ccsc3)C(=O)N2[C@H]1C(=O)O [TICARCILLIN] | 80 µM | 35 s⁻¹ | 450 mM⁻¹ s⁻¹ | > 512 µg/mL | 2 µg/mL (≈ 5.2 µM) | > 512 µg/mL | 
C[C@@H](O)[C@H]1C(=O)N2C(C(=O)O)=C(S[C@@H]3CN[C@H](C(=O)N(C)C)C3)[C@H](C)[C@H]12 |  | < 0.01 s⁻¹ |  |  |  |  | 
CCN1CCN(C(=O)N[C@@H](C(=O)N[C@@H]2C(=O)N3[C@@H]2SC(C)(C)[C@@H]3C(=O)O)c2ccccc2)C(=O)C1=O [PIPERACILLIN] | 10 µM | 0.4 s⁻¹ | 40 mM⁻¹ s⁻¹ | 64 µg/mL (≈ 124 µM) | 1 µg/mL (≈ 1.93 µM) | 128 µg/mL (≈ 247 µM) | 
CC1(C)S[C@@H]2[C@H](NC(=O)[C@H](N)c3ccccc3)C(=O)N2[C@H]1C(=O)O | 40 µM | 270 s⁻¹ | 6700 mM⁻¹ s⁻¹ |  |  |  | 

From ChEMBL document CHEMBL1145470, “Identification of the novel narrow-spectrum beta-lactamase SCO-1 in Acinetobacter spp. from Argentina” (Antimicrob Agents Chemother, 2007)
